Test results as given in patent US20060069163A1, “Method for treating Alzheimer's disease” (Pfizer Inc, priority 2000, published 2006).
“Also recorded” adds a separate entry of the source.

Tested on: β-amyloid peptide (Aβ) synthesized by β APP-CHO cells
Experiment: Aβ production in βAPP-CHO cells, sandwich ELISA
Assay type: cell-based, Chinese hamster
Conditions: CHO cells overexpressing human βAPP; test compounds added at various dose concentrations to the medium; FIG. 5 and FIG. 6
From the text: This experiment was designed to determine the ability of lipid regulating agents to alter the production of β-amyloid peptide (Aβ) in cultured cells, and their consequent activity in preventing and treating Alzheimer's Disease.
Chinese hamster ovary (CHO) cells were stably transfected with a construct to enable the overexpression of the human β-amyloid precursor protein (βAPP) gene to cause increased production of Aβ. The measurement of Aβ synthesized by these β APP-CHO cells was done using a standard sandwich ELISA assay, employing well-characterized antibodies to the N-terminus (6E10) and middle (4G8) of Aβ. This assay is routinely used to measure Aβ in tissues, body fluids, and cell culture media. Cultures of β APP-CHO cells were grown to near confluency, and then the test compounds were added at various dose concentrations to the cell medium.

Q: `CC(C)c1cc(C(C)C)c(CC(=O)NS(=O)(=O)Oc2c(C(C)C)cccc2C(C)C)c(C(C)C)c1` [Avasimibe] was tested. Which “reduction in Aβ” value did it give?
A: Its value is “substantial dose-dependent reduction”.

Q: How did the “reduction in Aβ” value turn out when `Cc1ccc(C)c(OCCCC(C)(C)C(=O)O)c1` [CI-719, gemfibrozil] was run?
A: Its value is “only moderate changes”.

Q: `CC(C)(CCCCOCCCCC(C)(C)C(=O)O)C(=O)O` [CI-1027] was tested. Which “reduction in Aβ” value did it give?
A: Its value is “only moderate changes”.

Q: Which “reduction in Aβ” value does the source give for `c1coc(CSC2=NCCS2)c1` [PD 69405] here?
A: Its value is “only moderate changes”.

Q: How did the “reduction in Aβ” value turn out when `CC[C@H](C)C(=O)O[C@H]1C[C@@H](C)C=C2C=C[C@H](C)[C@H](CC[C@@H]3C[C@@H](O)CC(=O)O3)[C@H]21` [lovastatin] was run?
A: Its value is “dose-dependent inhibition; also recorded: dramatic dose-dependent reduction”.

Q: How did the “reduction in Aβ” value turn out when `CC[C@H](C)C(=O)O[C@H]1CCC=C2C=C[C@H](C)[C@H](CC[C@@H]3C[C@@H](O)CC(=O)O3)[C@H]21` [mevastatin] was run?
A: The value was “dose-dependent inhibition”.

Same assay, conditions: CHO cells overexpressing human βAPP; test compounds added at various dose concentrations to the medium; FIG. 5 and FIG. 6; listed as Mevastatin

Q: Which “reduction in Aβ” value does the source give for `CC[C@H](C)C(=O)O[C@H]1CCC=C2C=C[C@H](C)[C@H](CC[C@@H]3C[C@@H](O)CC(=O)O3)[C@H]21` [mevastatin] here?
A: The value was “dramatic dose-dependent reduction”.
